Results: publication PMC2391127, “Modulation of erlotinib pharmacokinetics in mice by a novel cytochrome P450 3A4 inhibitor, BAS 100” (British Journal of Cancer, 2008)
Like-named read-outs stand apart in the source and are kept apart here. Values belong to the compound of their own block, whether it stands above or below them.

Columns and labels:
[1] = Plasma pharmacokinetics of erlotinib, OSI-420 and BAS 100 after oral dosing in BALB/c mice; format: in vivo; settings: for Tmax / AUC(0-t) / Cmax / half-life: mouse, po; for AUC(0-t) / Cmax / half-life: BALB/c; for half-life: read-out: HL λz (terminal half-life) (converted)
Experimental: (§1) BAS 100 was obtained from Bioavailabilty Systems (Cocoa Beach, FL, USA), and erlotinib and OSI-420 were obtained from Toronto Research Chemicals (North York, ON, Canada). All other chemicals and reagents were purchased from Sigma-Aldrich (St Louis, MO, USA). Female BALB/c mice (6–8 weeks old) were kept in a controlled environment, with food and water available ad libitum. All procedures were carried out with NCI Animal Care and Use Committee approval. In the first study, BAS 100 and erlotinib were formulated in 10% DMSO and 5% polysorbate 80 in saline. Mice were randomised to receive erlotinib (10 mg kg^−1, p.o.) alone or 30 min after BAS 100 (10 mg kg^−1, p.o.). Blood was collected by cardiac puncture from three mice per time point at 0.083, 0.25, 0.5, 1, 2, 4, 6 and 24 h following erlotinib administration, and centrifuged to obtain plasma. In the second study, erlotinib was formulated in 0.3% carboxymethylcellulose and 0.1% polysorbate 80 in saline. Female CYP3A4 transgenic mice ([Granvil et al, 2003]) and wild-type FVB/NCr mice (14 weeks old) received erlotinib (10 mg kg^−1, p.o.) alone or 30 min after BAS 100 (25 mg kg^−1, p.o.). Blood was collected 2 h after erlotinib administration. All samples were stored at −80°C until analysis. Plasma concentrations of erlotinib and OSI-420 were measured as described previously ([Zhao et al, 2003]). Plasma concentrations of BAS 100 were measured by a novel liquid chromatography-tandem mass spectrometry method. Briefly, plasma samples were prepared by protein precipitation with acetonitrile. BAS 100 and the internal standard (temazepam) were resolved isocratically on a Waters XTerra MS C18 column (50 × 2.1 mm internal diameter; 3.5 μm particle size). The mass spectrometer was equipped with an electrospray ionisation source and operated in positive mode. Detection was performed by multiple reaction monitoring. The lower limit of quantitation was 10 ng ml^−1. Pharmacokinetic parameters were determined by noncompartmental analysis using WinNonlin Professional Version 5.2 (Pharsight Corporation, Mountain View, CA, USA). Bailer's method ([Bailer, 1988]) was used to estimate the variance of the area under the curve (AUC). A Z-test was used for the pairwise comparison of AUCs ([Yuan, 1993]).

[2] = 2-h plasma concentration of erlotinib in wild-type FVB/NCr mice; format: in vivo; settings: for concentration at 2 h: female, FVB/NCr, mouse, plasma, po
Experimental: as §1, with “Bailer's method ([Bailer, 1988]) was used to estimate the variance of the area under the curve (AUC). A Z-test was used for the pairwise comparison of AUCs ([Yuan, 1993]).” left out

[3] = ref Hidalgo et al, 2001, cited from earlier work
[4] = 2-h plasma concentration of erlotinib in CYP3A4 transgenic mice; settings: female, mouse, in vivo, po, 10 mg kg^-1
Experimental: BAS 100 was obtained from Bioavailabilty Systems (Cocoa Beach, FL, USA), and erlotinib and OSI-420 were obtained from Toronto Research Chemicals (North York, ON, Canada). All other chemicals and reagents were purchased from Sigma-Aldrich (St Louis, MO, USA). Female BALB/c mice (6–8 weeks old) were kept in a controlled environment, with food and water available ad libitum. All procedures were carried out with NCI Animal Care and Use Committee approval. In the first study, BAS 100 and erlotinib were formulated in 10% DMSO and 5% polysorbate 80 in saline. Mice were randomised to receive erlotinib (10 mg kg^−1, p.o.) alone or 30 min after BAS 100 (10 mg kg^−1, p.o.). Blood was collected by cardiac puncture from three mice per time point at 0.083, 0.25, 0.5, 1, 2, 4, 6 and 24 h following erlotinib administration, and centrifuged to obtain plasma. In the second study, erlotinib was formulated in 0.3% carboxymethylcellulose and 0.1% polysorbate 80 in saline. […] Plasma concentrations of erlotinib and OSI-420 were measured as described previously ([Zhao et al, 2003]). Plasma concentrations of BAS 100 were measured by a novel liquid chromatography-tandem mass spectrometry method. […] The lower limit of quantitation was 10 ng ml^−1. Pharmacokinetic parameters were determined by noncompartmental analysis using WinNonlin Professional Version 5.2 (Pharsight Corporation, Mountain View, CA, USA). […]

[5] = female, plasma, 10 mg/kg, plasma, erlotinib 10 mg kg^-1 p.o. 30 min after BAS 100 10 mg kg^-1 p.o., BALB/c mice
[6] = female, plasma, 10 mg/kg, erlotinib 10 mg kg^-1 p.o. alone (-BAS 100), BALB/c mice

Tmax ([1]; in vivo, 10 mg/kg): 2.0 h
Structure (SMILES): C#Cc1cccc(Nc2ncnc3cc(OCCOC)c(OCCO)cc23)c1 [OSI-420]

Structure (SMILES): C#Cc1cccc(Nc2ncnc3cc(OCCOC)c(OCCOC)cc23)c1 [Erlotinib]
erlotinib exposure after 2.5-fold increase in the dose of BAS 100 ([1]; BAS 100 25 mg kg^-1 vs 10 mg kg^-1, data not shown): did not result in a further increase in erlotinib exposure
fold increase in the AUC of erlotinib by BAS 100 ([1]; erlotinib 10 mg kg^-1 p.o. after BAS 100 10 mg kg^-1 p.o. vs alone, P<0.05): 2.1 fold
AUC(0-t) [1, 5]: 38000 ng·h/mL
Cmax [1, 5]: 3950 ng/mL
half-life [1, 5]: 3.2 h
half-life ([1]; female, plasma, 10 mg/kg, plasma, erlotinib 10 mg kg^-1 p.o. alone (-BAS 100), BALB/c mice): 3.1 h
AUC(0-t) [1, 6]: 18000 ng·h/mL
Cmax [1, 6]: 2320 ng/mL
Tmax ([1]; female, plasma, erlotinib 10 mg kg^-1 p.o. alone (-BAS 100), BALB/c mice, read-out: Tmax): 0.5 h
fold increase in 2-h plasma concentration of erlotinib by BAS 100 ([2]; BAS 100 25 mg kg^-1 p.o.): 1.9 fold
concentration at 2 h ([2]; erlotinib 10 mg kg^-1 p.o. 30 min after BAS 100 25 mg kg^-1 p.o.): 1410 ± 237 ng/mL
concentration at 2 h ([2]; erlotinib 10 mg kg^-1 p.o. alone): 744 ± 135 ng/mL
relative extent of metabolism of erlotinib into OSI-420 ([3]; cancer patients): 0.12
interindividual pharmacokinetic variability ([3]; patients, Tan et al, 2004): up to eight-fold
concentration at 2 h [4]: 929 ± 80 ng/mL
